Reference: ChEMBL document CHEMBL1125671, “Synthesis and antiviral activity of enantiomeric forms of cyclobutyl nucleoside analogues” (1991)

How the values were obtained:
Format in all cases: functional
Murid betaherpesvirus 1 = assay: compound was tested for antiherpes activity against MCMV(Smith) in tissue culture by plaque reduction assay; settings: read-out: ID50 (the source's name)
Mus musculus [1] = assay: Mean day of death for total no. of dead mouse at 50 mg/kg/day dose
Mus musculus [2] = assay: Subcutaneous efficacy in a mouse cytomegalovirus infection at 50 mg/kg/day dose; Value expressed as survivors/total tested = 10/10
Mus musculus [3] = assay: Mean day of death for total no. of dead mouse at 12.5 mg/kg/day dose
Human alphaherpesvirus 3 = assay: compound was tested for antiherpes activity against VZV(Ellen) in tissue culture by plaque reduction assay; settings: read-out: ID50 (the source's name)
Mus musculus [4] = assay: oral efficacy in a mouse cytomegalovirus infection at 50 mg/kg/day dose; Value expressed as survivors/total tested = 5/10
Human alphaherpesvirus 2 = assay: compound was tested for antiherpes activity against HSV-2(186) in tissue culture by plaque reduction assay; settings: read-out: ID50 (the source's name)
Human alphaherpesvirus 1 = assay: compound was tested for antiherpes activity against HSV-1(Schooler) in tissue culture by plaque reduction assay; settings: read-out: ID50 (the source's name)
Mus musculus [5] = assay: Mean day of death for total no. of dead mouse at 12.5 mg/kg/day dosep<0.05
Mus musculus [6] = assay: Subcutaneous efficacy in a mouse cytomegalovirus infection at 12.5 mg/kg/day dose; Value expressed as survivors/total tested = 7/10
Human betaherpesvirus 5 = assay: compound was tested for antiherpes activity against HCMV(AD 169) in tissue culture by plaque reduction assay; settings: read-out: ID50 (the source's name)
Mus musculus [7] = assay: Mean day of death for total no. of dead mouse at 25 mg/kg/day dosep<0.05
Mus musculus [8] = assay: oral efficacy in a mouse cytomegalovirus infection at 12.5 mg/kg/day dose; Value expressed as survivors/total tested = 1/10
Mus musculus [9] = assay: Subcutaneous efficacy in a mouse cytomegalovirus infection at 25 mg/kg/day dose; Value expressed as survivors/total tested = 10/10
Mus musculus [10] = assay: oral efficacy in a mouse cytomegalovirus infection at 25 mg/kg/day dose; Value expressed as survivors/total tested = 1/10
Mus musculus [11] = assay: Subcutaneous efficacy in a mouse cytomegalovirus infection at 100 mg/kg/day dose; Value expressed as survivors/total tested = 10/10
Mus musculus [12] = assay: Subcutaneous efficacy in a mouse cytomegalovirus infection at 12.5 mg/kg/day dose; Value expressed as survivors/total tested = 5/10
Mus musculus [13] = assay: Subcutaneous efficacy in a mouse cytomegalovirus infection at 50 mg/kg/day; Value expressed as survivors/total tested = 9/10
Mus musculus [14] = assay: Subcutaneous efficacy in a mouse cytomegalovirus infection at 25 mg/kg/day dose; Value expressed as survivors/total tested = 9/10
Mus musculus [15] = assay: subcutaneous efficacy of compound in a lethal MCMV infection on mouse; settings: sc, read-out: PD50
Mus musculus [16] = assay: Mean day of death for total no. of dead mouse at 25 mg/kg/day dose
Mus musculus [17] = assay: Subcutaneous efficacy in a mouse cytomegalovirus infection at 12.5 mg/kg/day dose; Value expressed as survivors/total tested = 4/10
Mus musculus [18] = assay: oral efficacy in a mouse cytomegalovirus infection at 25 mg/kg/day dose; Value expressed as survivors/total tested = 3/10
Mus musculus [19] = assay: oral efficacy in a mouse cytomegalovirus infection at 100 mg/kg/day dose; Value expressed as survivors/total tested = 10/10
Mus musculus [20] = assay: Subcutaneous efficacy in a mouse cytomegalovirus infection at 6.3 mg/kg/day dose; Value expressed as survivors/total tested = 4/10
Mus musculus [21] = assay: oral efficacy in a mouse cytomegalovirus infection at 50 mg/kg/day dose; Value expressed as survivors/total tested = 6/10
Mus musculus [22] = assay: Mean day of death for total no. of dead mouse at 6.3 mg/kg/day dose

Row | Compound | IC50 (Murid betaherpesvirus 1) [µM] | Mean day of death for total dead (Mus musculus [1]) | Mean day of death for total dead (Mus musculus [3]) | IC50 (Human alphaherpesvirus 3) [µM] | IC50 (Human alphaherpesvirus 2) [µM] | IC50 (Human alphaherpesvirus 1) [µM] | IC50 (Human betaherpesvirus 5) [µM] | Survivors alive/total (Mus musculus [11]) | other results
1 | Nc1nc2c(ncn2COC(CO)CO)c(=O)[nH]1 [GANCICLOVIR] | 4 | 4.4 | 3.6 | 2 | 0.04 | 0.04 | 2 | 10 | Survivors alive/total (Mus musculus [2]): 10; Survivors alive/total (Mus musculus [4]): 5; Mean day of death for total dead (Mus musculus [5]): 5.7; Survivors alive/total (Mus musculus [6]): 7; Mean day of death for total dead (Mus musculus [7]): 4.8; Survivors alive/total (Mus musculus [8]): 1; Survivors alive/total (Mus musculus [9]): 10; Survivors alive/total (Mus musculus [10]): 1
2 | Nc1nc(O)c2ncn(C3C[C@@H](CO)[C@@H]3CO)c2n1 (stereo partly specified) | 0.2 | 6 | 5.4 | 0.02 | 0.02 | 0.02 | 0.8 | 10 | Survivors alive/total (Mus musculus [12]): 5; Survivors alive/total (Mus musculus [13]): 9; Survivors alive/total (Mus musculus [14]): 9; ED50 (Mus musculus [15]): 10 mg/kg/day; Mean day of death for total dead (Mus musculus [16]): 4
3 | Nc1ncnc2c1ncn2C1C[C@@H](CO)[C@@H]1CO (stereo partly specified) | 0.8 | 6.3 | 3.9 | 2 | 2 | 2 | < 0.4 | 10 | Survivors alive/total (Mus musculus [17]): 4; Survivors alive/total (Mus musculus [2]): 10; Survivors alive/total (Mus musculus [18]): 3; Survivors alive/total (Mus musculus [19]): 10; Mean day of death for total dead (Mus musculus [5]): 8.8; Survivors alive/total (Mus musculus [20]): 4; Survivors alive/total (Mus musculus [8]): 1; Survivors alive/total (Mus musculus [9]): 10; Survivors alive/total (Mus musculus [21]): 6; Mean day of death for total dead (Mus musculus [22]): 4.4; Mean day of death for total dead (Mus musculus [16]): 3.6
4 | Nc1ncnc2c1ncn2C1CC(CO)C1CO (stereo unspecified) | 2 | – | – | 2 | 8 | 8 | 0.8 | – | –
5 | Nc1ncnc2c1ncn2C1C[C@H](CO)C1CO (stereo partly specified) | – | – | – | > 400 | > 400 | > 400 | > 400 | – | –
6 | Nc1nc(O)c2ncn(C3CC(CO)C3CO)c2n1 (stereo unspecified) | 2 | – | – | 0.2 | 0.04 | 0.08 | 4 | – | –
7 | Nc1nc(O)c2ncn([C@H]3CC(CO)[C@@H]3CO)c2n1 (single isomer, unassigned) | – | – | – | > 377 | > 377 | > 377 | > 377 | – | –
